The supplement of paper PMC10307832

Tests used:
Assay in all cases: relative viability (nuclei count vs DMSO), 5 days (fraction); higher = more cells survive
JZL-184 + Trametinib = compound: C1CN(CCC1C(C2=CC3=C(C=C2)OCO3)(C4=CC5=C(C=C4)OCO5)O)C(=O)OC6=CC=C(C=C6)[N+](=O)[O-] [JZL-184] + CC(=O)Nc1cccc(-n2c(=O)n(C3CC3)c(=O)c3c(Nc4ccc(I)cc4F)n(C)c(=O)c(C)c32)c1 [Trametinib] (partner 0.02 µM)
Outline: (§1)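 Lung cancer cell lines, seeded in 1536-well plates, were treated the following day by pin tool with a single drug or with five library-drug doses (not always all listed) in √10 steps on top of a fixed anchor-drug dose. Cells were fixed and nuclei stained in one step after 5 days, and nuclei were counted. Relative viability is the nuclei count for treated wells divided by that for vehicle wells, reported as medians of duplicate plates.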

JZL-184 + Navitoclax = compound: C1CN(CCC1C(C2=CC3=C(C=C2)OCO3)(C4=CC5=C(C=C4)OCO5)O)C(=O)OC6=CC=C(C=C6)[N+](=O)[O-] [JZL-184] + CC1(C)CCC(c2ccc(Cl)cc2)=C(CN2CCN(c3ccc(C(=O)NS(=O)(=O)c4ccc(N[C@H](CCN5CCOCC5)CSc5ccccc5)c(S(=O)(=O)C(F)(F)F)c4)cc3)CC2)C1 [Navitoclax] (partner 0.5 µM)
Outline: as §1

JZL-184 + Luminespib = compound: C1CN(CCC1C(C2=CC3=C(C=C2)OCO3)(C4=CC5=C(C=C4)OCO5)O)C(=O)OC6=CC=C(C=C6)[N+](=O)[O-] [JZL-184] + CCNC(=O)c1noc(-c2cc(C(C)C)c(O)cc2O)c1-c1ccc(CN2CCOCC2)cc1 [Luminespib] (partner 0.01 µM)
Outline: as §1

JZL-184 + AZD7762 = compound: C1CN(CCC1C(C2=CC3=C(C=C2)OCO3)(C4=CC5=C(C=C4)OCO5)O)C(=O)OC6=CC=C(C=C6)[N+](=O)[O-] [JZL-184] + NC(=O)Nc1cc(-c2cccc(F)c2)sc1C(=O)N[C@H]1CCCNC1 [AZD7762] (partner 0.2 µM)
Outline: as §1

JZL-184 + Decitabine = compound: C1CN(CCC1C(C2=CC3=C(C=C2)OCO3)(C4=CC5=C(C=C4)OCO5)O)C(=O)OC6=CC=C(C=C6)[N+](=O)[O-] [JZL-184] + Nc1ncn([C@H]2C[C@H](O)[C@@H](CO)O2)c(=O)n1 [Decitabine] (partner 2 µM)
Outline: as §1

| Cell Line | relative viability (JZL-184 + Trametinib; first compound 0.04 µM) | relative viability (JZL-184 + Trametinib; first compound 0.4 µM) | relative viability (JZL-184 + Trametinib; first compound 1.265 µM) | relative viability (JZL-184 + Trametinib; first compound 4 µM) | relative viability (JZL-184 + Navitoclax; first compound 0.04 µM) | relative viability (JZL-184 + Navitoclax; first compound 0.4 µM) | relative viability (JZL-184 + Navitoclax; first compound 1.265 µM) | relative viability (JZL-184 + Navitoclax; first compound 4 µM) | relative viability (JZL-184 + Luminespib; first compound 0.04 µM) | relative viability (JZL-184 + Luminespib; first compound 0.4 µM) | relative viability (JZL-184 + Luminespib; first compound 1.265 µM) | relative viability (JZL-184 + Luminespib; first compound 4 µM) | relative viability (JZL-184 + AZD7762; first compound 0.04 µM) | relative viability (JZL-184 + AZD7762; first compound 0.4 µM) | relative viability (JZL-184 + AZD7762; first compound 1.265 µM) | relative viability (JZL-184 + AZD7762; first compound 4 µM) | relative viability (JZL-184 + Decitabine; first compound 0.04 µM) | relative viability (JZL-184 + Decitabine; first compound 0.4 µM) | relative viability (JZL-184 + Decitabine; first compound 1.265 µM) | relative viability (JZL-184 + Decitabine; first compound 4 µM) |
| --- | --- | --- | --- | --- | --- | --- | --- | --- | --- | --- | --- | --- | --- | --- | --- | --- | --- | --- | --- | --- |
| HOP-62 | 0.372 | 0.4 | 0.375 | 0.371 | 1.13 | 0.739 | 1.07 | 1.1 | 1.03 | 0.968 | 0.902 | 0.957 | 0.617 | 0.53 | 0.754 | 0.417 | 0.249 | 0.197 | 0.233 | 0.214 |
| LC-2-ad | 0.94 | 0.896 | 0.93 | 0.881 | 0.467 | 0.248 | 0.491 | 0.369 | 1.27 | 0.891 | 1.11 | 1.03 | 0.909 | 0.8 | 0.853 | 0.829 | 0.687 | 0.718 | 0.887 | 0.787 |
| LCLC-97TM1 | 0.215 | 0.182 | 0.222 | 0.206 | 0.362 |  | 0.663 | 0.269 | 0.812 | 0.66 | 0.828 | 0.653 | 0.281 | 0.134 | 0.244 | 0.303 | 0.228 | 0.2 | 0.236 | 0.216 |
| LK-2 | 0.903 | 0.736 | 0.856 | 0.721 | 0.941 | 0.821 | 1.06 | 0.77 | 0.217 | 0.194 | 0.203 | 0.17 | 0.438 | 0.501 | 0.422 | 0.411 | 0.254 | 0.198 | 0.273 | 0.304 |
| LOU-NH91 | 0.793 | 0.754 | 0.848 | 0.754 | 0.763 | 0.71 | 0.886 | 0.718 | 0.26 | 0.322 | 0.32 | 0.387 | 0.785 | 0.754 | 0.81 | 0.733 | 0.814 | 0.837 | 0.863 | 0.749 |
| LU99A | 0.574 | 0.469 | 0.607 | 0.638 | 0.714 | 0.588 | 0.804 | 0.463 | 0.279 | 0.224 | 0.283 | 0.321 | 0.364 | 0.363 | 0.346 | 0.328 | 1 | 0.902 | 1.01 | 0.843 |
| LXF-289 | 0.789 | 0.604 | 0.668 | 0.668 | 0.973 | 0.832 | 0.91 | 0.928 | 0.917 | 0.57 | 0.693 | 0.618 | 1.07 | 1.08 | 1.1 | 1.06 | 0.438 | 0.364 | 0.353 | 0.388 |
| NCI-H23 | 0.409 |  | 0.358 | 0.392 | 1.01 | 0.63 | 0.837 | 0.777 | 0.21 |  | 0.194 | 0.21 | 0.203 |  | 0.25 | 0.283 | 0.275 |  | 0.266 | 0.328 |
| NCI-H322M | 0.456 | 0.48 | 0.513 | 0.482 | 1.18 | 1.26 | 1.32 | 1.31 | 0.91 | 0.797 | 0.889 | 0.705 | 0.549 | 0.523 | 0.629 | 0.521 | 0.661 | 0.684 | 0.678 | 0.668 |
| NCI-H441 | 0.473 | 0.436 | 0.49 | 0.487 | 0.802 | 0.59 | 0.796 | 0.608 | 0.442 | 0.325 | 0.365 | 0.347 | 1.44 | 1.23 | 1 | 1.02 | 0.237 | 0.249 | 0.188 | 0.281 |
| NCI-H460 | 0.22 | 0.145 | 0.213 | 0.099 | 1.37 | 1.02 | 1.02 | 1.12 | 0.0429 | 0.0344 | 0.0404 | 0.0362 | 0.639 | 0.617 | 0.659 | 0.599 | 0.629 | 0.45 | 0.463 | 0.442 |
| NCI-H596 | 0.86 | 0.76 | 0.801 | 0.767 | 0.936 | 0.993 | 0.93 | 0.791 | 1.23 | 1.13 | 0.996 | 1.09 | 1.16 | 0.911 | 1.11 | 1.29 | 1.1 | 0.96 | 1.01 | 0.984 |
| NCI-H647 | 0.455 | 0.41 | 0.562 | 0.504 | 1.24 | 1.12 | 1.12 | 1.07 | 0.286 | 0.128 | 0.0998 | 0.216 | 0.45 | 0.391 | 0.426 | 0.451 | 0.455 | 0.302 | 0.353 | 0.426 |
| NCI-H727 | 0.416 | 0.366 | 0.414 | 0.39 | 0.383 | 0.455 | 0.543 | 0.422 | 0.343 | 0.286 | 0.375 | 0.355 | 0.493 | 0.464 | 0.621 | 0.595 | 0.928 | 0.663 | 0.626 | 1.13 |
| NCI-H838 | 0.65 | 0.569 | 0.543 | 0.477 | 1.39 | 1.22 | 1.21 | 1.11 | 0.287 | 0.281 | 0.274 | 0.258 | 1.01 | 0.896 | 0.929 | 0.915 | 0.551 | 0.475 | 0.465 | 0.467 |
